“Also recorded” adds a separate entry of the source.

The subject of this assay is mustard oil-induced acute neurogenic inflammation in the mouse ear. Kind of assay: Filtered and non-filtered CYT-1010 on 5% mustard oil-induced acute neurogenic ear swelling in mice (Example 4). The assay is classed as in vivo. As for the experimental part: Stock solution of the 100 μg/ml concentration of CYT-1010 (5.5 ml) was prepared fresh every experimental day with 20% hydroxypropyl-βcyclodextrin (HPCD) dissolved in sterile distilled water, shaken properly and sonicated. The vehicle was 20% HPCD dissolved in sterile distilled water. Further dilutions of the compound for the smaller administered doses were made with this vehicle. The applied concentrations were filtered through a 0.2 μm sterile teflon filter. […] The lower concentrations looked clear immediately. Non-filtered solutions were administered in the same concentrations in the parallel groups for comparison. Three doses of both the filtered and non-filtered CYT-1010 solutions (1, 10 and 100 μg/kg; 0.1 ml/10 g from the 0.1, 1 and 10 μg/ml solutions) were administered i.v. 5 min before the induction of the inflammation. Animals of the control group were treated with the same volume of the HPCD after or without the same filtration procedure.
Mice were anaesthesized with urethane (1.2 g/kg i.p.) to achieve a long-lasting deep anaesthesia and minimize respiratory depression. Ten μl of 5% mustard oil dissolved in paraffin oil was smeared on both sides of both ears. Mustard oil in this concentration selectively activates Transient Receptor Potential A1 (TRPA1) on capsaicin-sensitive peptidergic sensory nerves and induces the release of sensory neuropeptides (Banvolgyi et al., 2004). The released calcitonin gene-related peptide (CGRP) and tachykinins such as substance P (SP) in the innervated area evoke vasodilatation and plasma protein extravasation collectively called acute neurogenic inflammation (Helyes et al., 1997, 2001, 2006; Borzsei et a., 2008).
CYT-1010 (1, 10 and 100 μg/kg; 0.1 ml/10 g from the 0.1, 1, 10 μg/ml solutions) was administered i.v. 5 min before the induction of the inflammation by mustard oil smearing. Mice in the control group were treated with the same volume of the vehicle, 20% HPCD dissolved in sterile distilled water
There were 8 mice in each experimental group, and 9 in the 1 μg/kg filtered CYT-1010 dose group […].
65 male CD1 mice (25-35 g) were divided into 8 experimental groups: Group 1: non-filtered vehicle-treated controls (n=8); Group 2: non-filtered 1 μg/kg CYT-1010 (n=8); Group 3: non-filtered 10 μg/kg CYT-1010 (n=8); Group 4: non-filtered 100 μg/kg CYT-1010 (n=8); Group 5: filtered vehicle-treated controls (n=8); Group 6: filtered 1 μg/kg CYT-1010 (n=9); Group 7: filtered 10 μg/kg CYT-1010 (n=8); and Group 8: filtered 100 μg/kg CYT-1010 (n=8).
This study was undertaken in blocks with 16-17 mice per occasion. The whole set of data was obtained during 4 days (12, 13, 16, 22 Apr. 2010). There were 2 or 3 solvent-treated rats every day and the remaining 12 animals were randomised to receive each treatment.
The diameter of the ear was measured with an engineers' micrometer before the treatment and 4 times during the 3 h-examination period (20 min, 1 h, 2 h and 3 h). Edema was expressed in % compared to the initial control values (Banvolgyi et al., 2004; Borzsei et al., 2008). The compound was administered i.v. 5 min before mustard oil smearing in 3 doses (1, 10, 100 μg/kg) in separate groups after sterile filtration or without filtration. Animals of the control group were treated with the same volume of the vehicle
Results are expressed as the mean±s.e.m. Statistical significance was performed with one-way ANOVA followed by Dunnett's post-hoc test (modified t-test) when the data of the CYT-1010-treated groups were compared to the respective vehicle-treated controls at certain time points. The areas under the time-dependent percentage ear swelling curves (AUC) were also calculated and analyzed with the same statistics to compare the whole edema responses of the CYT-1010-treated mice during the 3 h-experimental period to the respective control group. *p<0.05 was considered to be significant. […]

On to `NC(Cc1ccc(O)cc1)C(=O)NC1CCCCNC(=O)C(Cc2ccccc2)NC(=O)C(Cc2c[nH]c3ccccc23)NC1=O` [CYT-1010, H-Tyr-c-[D-Lys-Trp-Phe]], for which the “Effect of filtration on the inhibitory action of CYT-1010” value (0.2 μm sterile filter, filtered vs non-filtered) is “moderately decreases”. Besides, the “AUC of time course of percentage ear swelling” value reads like this: (filtered (0.2 μm), 1 μg/kg i.v., control 50.04±6.96, NS) 51.47±6.93 units; (filtered (0.2 μm), 10 μg/kg i.v., control 50.04±6.96, NS) 33.68±3.79 units; (filtered (0.2 μm), 100 μg/kg i.v., control 50.04±6.96, NS) 33.97±5.62 units; (non-filtered, 1 μg/kg i.v., control 44.02±6.97, NS) 40.33±5.32 units; (non-filtered, 10 μg/kg i.v., control 44.02±6.97, P<0.05) 24.21±2.75 units; (non-filtered, 100 μg/kg i.v., control 44.02±6.97, P<0.01) 21.71±1.72 units. For the same compound, the “Effect on mustard oil-induced ear swelling” value is, setting by setting: (filtered, 1 μg/kg i.v.) “did not influence ear swelling; also recorded: did not have any effect”; (filtered, 10 μg/kg and 100 μg/kg i.v., 20 min) “inhibited significantly”; (filtered, two higher doses (10 and 100 μg/kg i.v.)) “moderate inhibition”; (non-filtered, 1 μg/kg i.v.) “did not significantly diminish ear swelling”; (non-filtered, 10 μg/kg and 100 μg/kg i.v., from 20 min until the 2 hour time point) “significantly inhibited; also recorded: significantly reduced”. Also, the “Extent of the inhibition of ear swelling” value (non-filtered, 10 μg/kg and 100 μg/kg i.v., both cases) is listed as “about 50%”.

For the origin of these results see patent US11324798B2, “Materials and methods for treatment of inflammation” (CYTOGEL PHARMA, LLC, priority 2010, dated 2022).
